The values below come from ChEMBL document CHEMBL1127482 (J Med Chem, 1994).

Molecules are shown by their SMILES. A value given as a limit tells only on which side of the number the result lay.

This assay is filed under the species Canis familiaris. The assay can be described thus: Effect of compound on template bleeding time in dogs. It is filed as functional, Canis lupus familiaris.
Molecule `COc1ccc(C[C@@H]2NC(=O)[C@H](CC(=O)O)NC(=O)CNC(=O)[C@H](CCCNC(=N)N)NC(=O)[C@@H]3CCCN3C(=O)[C@H](CC(N)=O)NC(=O)[C@@H](NC(C)=O)CSSC[C@@H](C(N)=O)NC(=O)[C@H](C)NC2=O)cc1` had a Bleeding time of over 30 min.
As to `COc1ccc(C[C@@H]2NC(=O)[C@H](CC(=O)O)NC(=O)CNC(=O)[C@H](CCCNC(=N)N)NC(=O)[C@@H]3CCCN3C(=O)[C@H](CC(N)=O)NC(=O)[C@@H](NC(C)=O)CSSC[C@@H](C(N)=O)NC(=O)[C@H](CCC(=O)O)NC2=O)cc1`, the Bleeding time was over 30 min.
The same measure for `COc1ccc(C[C@@H]2NC(=O)[C@H](CC(=O)O)NC(=O)CNC(=O)[C@H](CCCN=C(N)N)NC(=O)[C@@H]3CCCN3C(=O)[C@H](CC(N)=O)NC(=O)[C@@H](NC(C)=O)CSSC[C@@H](C(N)=O)NC(=O)[C@H](CCCN=C(N)N)NC2=O)cc1`: 3 min; for `COc1ccc(C[C@@H]2NC(=O)[C@H](CC(=O)O)NC(=O)CNC(=O)[C@H](CCCNC(=N)N)NC(=O)[C@@H]3CCCN3C(=O)[C@H](CC(N)=O)NC(=O)[C@@H](NC(C)=O)CSSC[C@@H](C(N)=O)NC(=O)[C@H](CC(C)C)NC2=O)cc1`: 21 min.
